Measured values: ChEMBL document CHEMBL1201862, “PubChem BioAssay data set” (2004)
Calls of active or inactive are those of the source.

Legend:
[1] = target: T1, Mannose-6-phosphate isomerase (Homo sapiens, UniProt P34949); experiment: MPI enzyme activity inhibition – biochemical, fluorescence intensity, coupled assay, primary screen (AID 1209)
T1 sequence (P34949 whole entry): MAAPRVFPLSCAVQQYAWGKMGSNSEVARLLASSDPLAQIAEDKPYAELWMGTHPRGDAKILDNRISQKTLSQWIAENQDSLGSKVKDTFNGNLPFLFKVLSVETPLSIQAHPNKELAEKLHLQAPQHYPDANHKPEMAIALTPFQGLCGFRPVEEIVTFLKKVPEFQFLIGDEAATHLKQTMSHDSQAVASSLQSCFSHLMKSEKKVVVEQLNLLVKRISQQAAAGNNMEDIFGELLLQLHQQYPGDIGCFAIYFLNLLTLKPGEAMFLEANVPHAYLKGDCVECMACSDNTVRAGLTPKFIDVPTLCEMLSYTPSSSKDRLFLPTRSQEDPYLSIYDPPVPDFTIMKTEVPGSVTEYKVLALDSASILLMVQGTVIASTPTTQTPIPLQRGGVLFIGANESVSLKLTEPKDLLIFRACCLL

[2] = A Cell Based Secondary Assay To Explore Cytotoxicity of Compounds that Sensitize Mycobacterium Tuberculosis to Beta-Lactam Antibiotics.; format: functional
[3] = target: Peroxisome proliferator-activated receptor gamma/Nuclear receptor coactivator 2 (Homo sapiens, UniProt P37231); format: functional;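 further: agonist potency for raising coactivator recruitment to the receptor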
[4] = target: Peroxisome proliferator-activated receptor gamma/Nuclear receptor coactivator 1 (Homo sapiens, UniProt P37231); format: functional;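 further: agonist potency as compounds enhance coactivator SRC-1 recruitment to PPARgamma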
[5] = target: Peroxisome proliferator-activated receptor gamma/Nuclear receptor coactivator 3 (Homo sapiens, UniProt P37231); format: functional;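 further: agonist potency for raising coactivator recruitment to the receptor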
Peroxisome proliferator-activated receptor gamma/Nuclear receptor coactivator 3, sequence (P37231 whole entry): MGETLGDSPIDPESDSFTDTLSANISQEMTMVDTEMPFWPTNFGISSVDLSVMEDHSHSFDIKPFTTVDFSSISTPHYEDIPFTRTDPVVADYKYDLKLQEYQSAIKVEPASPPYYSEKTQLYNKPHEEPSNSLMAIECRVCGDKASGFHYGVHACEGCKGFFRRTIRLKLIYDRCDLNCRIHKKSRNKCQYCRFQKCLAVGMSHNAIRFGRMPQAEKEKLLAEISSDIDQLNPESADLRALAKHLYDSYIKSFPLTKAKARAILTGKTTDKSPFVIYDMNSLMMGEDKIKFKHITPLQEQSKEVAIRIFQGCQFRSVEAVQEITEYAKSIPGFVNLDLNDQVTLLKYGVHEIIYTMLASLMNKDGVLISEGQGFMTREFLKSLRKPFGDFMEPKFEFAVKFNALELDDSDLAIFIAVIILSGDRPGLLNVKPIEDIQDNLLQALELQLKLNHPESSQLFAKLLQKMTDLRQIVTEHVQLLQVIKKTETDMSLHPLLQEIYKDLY
Peroxisome proliferator-activated receptor gamma/Nuclear receptor coactivator 3, sequence (Q9Y6Q9 whole entry, further chain): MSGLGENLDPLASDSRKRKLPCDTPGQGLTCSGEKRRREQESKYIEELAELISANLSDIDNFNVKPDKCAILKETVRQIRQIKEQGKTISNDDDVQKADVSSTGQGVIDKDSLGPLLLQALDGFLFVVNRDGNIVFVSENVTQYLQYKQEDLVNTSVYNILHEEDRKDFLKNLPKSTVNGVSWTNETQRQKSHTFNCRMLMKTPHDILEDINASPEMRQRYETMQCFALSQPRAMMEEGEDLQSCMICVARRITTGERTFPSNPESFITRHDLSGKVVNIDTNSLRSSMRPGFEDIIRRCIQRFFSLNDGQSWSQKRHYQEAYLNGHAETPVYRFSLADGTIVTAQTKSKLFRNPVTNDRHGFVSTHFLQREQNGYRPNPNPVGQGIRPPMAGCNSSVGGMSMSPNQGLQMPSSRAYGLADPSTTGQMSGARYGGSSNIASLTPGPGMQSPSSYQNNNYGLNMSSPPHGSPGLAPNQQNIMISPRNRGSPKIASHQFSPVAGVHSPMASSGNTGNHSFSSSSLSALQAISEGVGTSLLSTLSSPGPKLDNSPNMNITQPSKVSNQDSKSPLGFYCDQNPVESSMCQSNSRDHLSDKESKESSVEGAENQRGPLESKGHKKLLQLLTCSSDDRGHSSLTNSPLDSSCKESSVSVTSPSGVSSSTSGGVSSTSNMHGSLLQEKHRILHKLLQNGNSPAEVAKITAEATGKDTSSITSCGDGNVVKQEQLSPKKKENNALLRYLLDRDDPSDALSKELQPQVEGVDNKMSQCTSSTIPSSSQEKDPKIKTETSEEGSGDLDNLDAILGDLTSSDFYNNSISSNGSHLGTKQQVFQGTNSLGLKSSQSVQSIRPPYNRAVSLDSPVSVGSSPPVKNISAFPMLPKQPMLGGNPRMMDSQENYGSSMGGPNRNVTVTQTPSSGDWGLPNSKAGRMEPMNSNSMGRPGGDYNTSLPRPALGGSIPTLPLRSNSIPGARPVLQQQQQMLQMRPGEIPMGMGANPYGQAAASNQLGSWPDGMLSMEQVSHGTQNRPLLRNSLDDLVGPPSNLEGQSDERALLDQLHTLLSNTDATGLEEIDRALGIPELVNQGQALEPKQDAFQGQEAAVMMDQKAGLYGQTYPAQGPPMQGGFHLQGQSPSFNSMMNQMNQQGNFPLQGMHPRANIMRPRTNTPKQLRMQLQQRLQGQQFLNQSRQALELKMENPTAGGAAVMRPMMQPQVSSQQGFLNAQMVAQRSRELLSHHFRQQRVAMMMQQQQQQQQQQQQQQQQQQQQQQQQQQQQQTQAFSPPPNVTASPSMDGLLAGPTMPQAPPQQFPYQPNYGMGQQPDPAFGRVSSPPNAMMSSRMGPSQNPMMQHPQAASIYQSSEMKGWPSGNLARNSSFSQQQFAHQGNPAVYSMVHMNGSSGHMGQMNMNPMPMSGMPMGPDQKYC

[6] = Luminescence Cell-Based Dose Retest to Confirm Inhibitors of Cancer Stem Cells. [Related pubchem assays (depositor defined):AID2717, AID2721]; format: functional; conditions: Homo sapiens
[7] = target: T2, Endoribonuclease toxin MazF (Escherichia coli K-12, UniProt P0AE70); experiment: activation of MazEF endoribonuclease cleavage – biochemical, fluorescence, single-stranded RNA substrate, uHTS hits, dose response (AID 588481); format: functional
T2 sequence (P0AE70 whole entry): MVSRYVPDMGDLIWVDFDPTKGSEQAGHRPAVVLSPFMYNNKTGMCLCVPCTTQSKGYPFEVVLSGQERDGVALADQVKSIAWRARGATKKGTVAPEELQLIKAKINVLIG

[8] = target: T2, Endoribonuclease toxin MazF; experiment: substrate-only fluorescence increase artefacts – biochemical, single-stranded RNase substrate, counter-screen for MazEF activator project, dose response (AID 588502); format: functional
[9] = luciferase reporter signal suppression in cells – H4 neuroglioma cells, luminescence, dose response (AID 1990); format: functional, cell-based
[10] = decrease of insulin promoter-GFP reporter – imaging, high-content screening, mouse beta cells (AID 1628); format: functional; conditions: MIN6
[11] = target: T3, Neuropeptide Y receptor type 2 (Homo sapiens, UniProt P49146); experiment: IC50 for human NPY-Y2 blockade – cell-based, counter-screen for NPY-Y1 antagonist project, dose response (AID 1278); format: functional
T3 sequence (P49146 whole entry): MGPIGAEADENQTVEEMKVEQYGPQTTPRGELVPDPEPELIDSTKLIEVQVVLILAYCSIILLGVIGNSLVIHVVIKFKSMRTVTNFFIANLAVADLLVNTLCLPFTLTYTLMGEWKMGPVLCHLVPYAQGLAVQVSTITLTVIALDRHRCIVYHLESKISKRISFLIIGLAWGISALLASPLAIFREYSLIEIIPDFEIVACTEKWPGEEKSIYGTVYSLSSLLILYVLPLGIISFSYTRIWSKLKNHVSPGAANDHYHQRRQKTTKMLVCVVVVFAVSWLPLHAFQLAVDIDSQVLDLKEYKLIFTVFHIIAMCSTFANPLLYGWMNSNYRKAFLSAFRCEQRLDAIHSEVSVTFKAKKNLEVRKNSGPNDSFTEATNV

[12] = target: Luciferin 4-monooxygenase (Photinus pyralis, UniProt P08659); experiment: Counter Screen for Luciferase-based Assay Positives. [Related pubchem assays: 620, 618, 411 ]
Luciferin 4-monooxygenase, sequence (P08659 whole entry): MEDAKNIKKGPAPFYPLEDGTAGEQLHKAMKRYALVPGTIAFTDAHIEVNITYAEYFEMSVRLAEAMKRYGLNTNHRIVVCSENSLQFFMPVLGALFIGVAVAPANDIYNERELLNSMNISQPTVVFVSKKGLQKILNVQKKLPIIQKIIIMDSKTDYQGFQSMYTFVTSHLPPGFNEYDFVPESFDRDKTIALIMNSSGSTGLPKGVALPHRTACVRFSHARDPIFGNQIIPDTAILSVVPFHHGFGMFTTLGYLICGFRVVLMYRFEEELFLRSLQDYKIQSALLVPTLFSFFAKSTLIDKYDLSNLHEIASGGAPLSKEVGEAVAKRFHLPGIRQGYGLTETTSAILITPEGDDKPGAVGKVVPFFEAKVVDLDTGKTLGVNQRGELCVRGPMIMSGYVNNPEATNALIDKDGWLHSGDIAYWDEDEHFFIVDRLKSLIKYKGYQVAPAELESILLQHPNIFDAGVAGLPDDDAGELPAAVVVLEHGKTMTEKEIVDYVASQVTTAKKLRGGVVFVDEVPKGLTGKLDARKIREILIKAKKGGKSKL

[13] = Luminescence Cell-Based Dose Response HTS to Identify Inhibitors of 5'UTR Stem-Loop Driven Prion Protein mRNA Translation in H4 Neuroglioblastoma Cells. [Related pubchem assays: 1827 (Project Summary), 1813 (Primary HTS)]; format: functional
[14] = MIN6 cell viability loss – mouse insulinoma, cytotoxicity control, dose response (AID 2122); format: functional;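 further: confirmatory high-throughput counterscreen run to flag cytotoxic compounds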
[15] = target: Galanin receptor type 2 (Homo sapiens, UniProt O43603); experiment: Dose Response cell-based high-throughput screening assay to identify antagonists of galanin receptor 2 (GALR2). [Related pubchem assays: 828, 866 ]; format: functional
Galanin receptor type 2, sequence (O43603 whole entry): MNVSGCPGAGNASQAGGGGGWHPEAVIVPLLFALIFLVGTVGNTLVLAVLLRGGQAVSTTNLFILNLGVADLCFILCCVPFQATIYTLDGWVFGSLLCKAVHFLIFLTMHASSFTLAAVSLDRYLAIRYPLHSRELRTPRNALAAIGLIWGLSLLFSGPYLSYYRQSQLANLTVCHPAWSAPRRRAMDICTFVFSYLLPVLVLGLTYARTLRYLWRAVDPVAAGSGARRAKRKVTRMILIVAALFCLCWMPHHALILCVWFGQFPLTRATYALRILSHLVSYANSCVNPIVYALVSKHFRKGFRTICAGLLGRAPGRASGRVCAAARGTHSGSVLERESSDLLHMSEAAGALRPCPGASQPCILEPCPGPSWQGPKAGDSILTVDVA

[16] = alpha-synuclein stem-loop luciferase translation blockers – H4 neuroglioma cells, luminescence, confirmation (AID 1988); format: functional, cell-based
[17] = target: T4, Neuropeptide Y receptor type 1 (Homo sapiens, UniProt P25929); experiment: IC50 of human NPY-Y1 blockers – cell-based, dose response (AID 1277); format: functional
T4 sequence (P25929 whole entry): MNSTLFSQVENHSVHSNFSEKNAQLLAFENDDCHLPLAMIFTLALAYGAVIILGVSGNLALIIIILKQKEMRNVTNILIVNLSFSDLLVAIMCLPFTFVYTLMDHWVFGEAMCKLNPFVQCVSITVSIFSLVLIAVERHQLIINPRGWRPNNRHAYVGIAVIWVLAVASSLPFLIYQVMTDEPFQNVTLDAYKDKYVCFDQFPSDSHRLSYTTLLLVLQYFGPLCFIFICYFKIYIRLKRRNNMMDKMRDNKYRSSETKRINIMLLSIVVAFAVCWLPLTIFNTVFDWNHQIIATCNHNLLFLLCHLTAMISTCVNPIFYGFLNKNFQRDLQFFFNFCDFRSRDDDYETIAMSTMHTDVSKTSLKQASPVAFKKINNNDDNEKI

[18] = system: HT-1080; experiment: HT1080 cell viability loss – fluorescence readout (AID 620); format: functional, cell-based; conditions: Homo sapiens
[19] = target: Photoreceptor-specific nuclear receptor (Homo sapiens, UniProt Q9Y5X4); format: functional, cell-based;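 further: CHO-S cells with Gal4-NCOR and VP16-NR2E3 two-hybrid luciferase reporter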
Photoreceptor-specific nuclear receptor, sequence (Q9Y5X4 whole entry, the tested form may be a part): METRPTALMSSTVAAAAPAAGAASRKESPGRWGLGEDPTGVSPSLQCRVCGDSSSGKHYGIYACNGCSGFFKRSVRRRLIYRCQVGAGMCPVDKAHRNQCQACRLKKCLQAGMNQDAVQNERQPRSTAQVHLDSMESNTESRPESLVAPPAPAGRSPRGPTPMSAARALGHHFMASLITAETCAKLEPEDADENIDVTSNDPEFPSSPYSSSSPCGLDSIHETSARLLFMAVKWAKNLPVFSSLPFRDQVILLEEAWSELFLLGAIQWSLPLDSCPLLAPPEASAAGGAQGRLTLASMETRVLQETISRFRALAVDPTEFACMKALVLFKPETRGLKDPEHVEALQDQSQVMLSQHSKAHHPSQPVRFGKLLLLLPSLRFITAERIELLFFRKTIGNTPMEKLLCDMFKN

[20] = target: Bcl-2-like protein 10 (Homo sapiens, UniProt Q9HD36); experiment: Concentration-response of Bcl-B inhibitors by biochemical FP with TR3 (AID 1243); format: functional
[21] = target: T5, Estrogen receptor (Homo sapiens, UniProt P03372);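 further: potency for inhibiting coactivator peptide recruitment to the receptor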
T5 sequence (P03372 whole entry): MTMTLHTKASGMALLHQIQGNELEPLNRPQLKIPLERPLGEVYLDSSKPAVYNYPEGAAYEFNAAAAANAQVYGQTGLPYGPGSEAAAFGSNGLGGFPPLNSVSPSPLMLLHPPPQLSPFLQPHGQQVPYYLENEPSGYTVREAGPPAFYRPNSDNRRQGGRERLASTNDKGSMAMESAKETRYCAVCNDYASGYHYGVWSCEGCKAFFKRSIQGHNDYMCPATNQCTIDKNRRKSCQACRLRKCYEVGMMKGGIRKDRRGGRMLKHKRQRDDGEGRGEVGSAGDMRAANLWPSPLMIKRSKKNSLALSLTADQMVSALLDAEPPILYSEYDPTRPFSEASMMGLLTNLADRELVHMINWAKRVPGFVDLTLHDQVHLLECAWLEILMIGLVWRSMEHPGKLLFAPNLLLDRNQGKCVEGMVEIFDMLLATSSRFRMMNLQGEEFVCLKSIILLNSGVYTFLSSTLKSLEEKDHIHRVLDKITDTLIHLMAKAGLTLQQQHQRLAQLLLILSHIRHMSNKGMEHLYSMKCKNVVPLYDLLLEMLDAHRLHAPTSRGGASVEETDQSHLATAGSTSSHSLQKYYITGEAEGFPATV

[22] = target: T6, Estrogen receptor beta (Homo sapiens, UniProt Q92731);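 further: recombinant ER-beta bound to coactivator SRC1 peptide in presence of estradiol agonist; inhibitors block coactivator peptide binding and lower the FRET signal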
T6 sequence (Q92731 whole entry): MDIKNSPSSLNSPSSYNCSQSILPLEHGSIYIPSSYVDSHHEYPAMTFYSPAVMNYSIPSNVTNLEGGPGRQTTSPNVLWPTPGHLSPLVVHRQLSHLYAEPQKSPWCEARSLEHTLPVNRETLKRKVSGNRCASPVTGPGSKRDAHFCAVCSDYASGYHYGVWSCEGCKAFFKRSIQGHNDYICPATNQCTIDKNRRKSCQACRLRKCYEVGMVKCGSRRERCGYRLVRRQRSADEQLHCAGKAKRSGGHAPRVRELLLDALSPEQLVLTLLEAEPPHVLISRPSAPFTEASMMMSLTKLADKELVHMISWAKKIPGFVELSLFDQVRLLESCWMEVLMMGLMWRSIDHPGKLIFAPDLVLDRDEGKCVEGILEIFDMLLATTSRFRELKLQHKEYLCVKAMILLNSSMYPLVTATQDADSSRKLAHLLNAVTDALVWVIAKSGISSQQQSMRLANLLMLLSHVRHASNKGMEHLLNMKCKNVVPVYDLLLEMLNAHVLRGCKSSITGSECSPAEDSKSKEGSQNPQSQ

[23] = target: T6, Estrogen receptor beta; experiment: blockers of SRC-3 recruitment to ERβ – biochemical, ELISA, streptavidin-HRP readout, orthogonal assay, confirmation (AID 1060)
[24] = target: T7, Protein skinhead-1 (Caenorhabditis elegans, UniProt P34707); format: functional
T7 sequence (P34707 whole entry): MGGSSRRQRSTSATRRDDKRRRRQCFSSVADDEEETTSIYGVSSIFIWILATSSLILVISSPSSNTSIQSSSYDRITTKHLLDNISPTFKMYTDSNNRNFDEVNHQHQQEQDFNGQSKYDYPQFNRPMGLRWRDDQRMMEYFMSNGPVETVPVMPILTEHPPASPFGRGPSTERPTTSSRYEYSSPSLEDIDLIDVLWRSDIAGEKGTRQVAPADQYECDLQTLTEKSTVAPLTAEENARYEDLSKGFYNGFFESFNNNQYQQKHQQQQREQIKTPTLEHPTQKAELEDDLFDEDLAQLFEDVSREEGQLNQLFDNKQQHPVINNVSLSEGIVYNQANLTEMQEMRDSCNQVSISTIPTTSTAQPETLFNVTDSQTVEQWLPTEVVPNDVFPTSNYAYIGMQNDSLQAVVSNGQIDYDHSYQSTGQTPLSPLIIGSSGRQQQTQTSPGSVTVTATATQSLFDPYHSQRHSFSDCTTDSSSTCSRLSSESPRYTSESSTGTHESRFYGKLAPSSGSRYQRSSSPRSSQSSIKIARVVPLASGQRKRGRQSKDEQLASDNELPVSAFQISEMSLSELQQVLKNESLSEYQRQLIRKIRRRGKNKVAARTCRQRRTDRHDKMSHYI

[25] = system: Streptococcus sp. 'group A'; experiment: Streptococcus pyogenes SK(-)GAS viability under kanamycin – luminescence, BacTiterGlo, confirmation, counter-screen for streptokinase expression inhibitor project, dose response (AID 1900); format: functional, organism-based
[26] = target: T8, Streptokinase A (Streptococcus pyogenes serotype M1, UniProt P10520); experiment: viability-normalized secreted streptokinase activity reduction – plasminogen activation absorbance, OD405, dose response (AID 1914); format: functional, Streptococcus pyogenes M1 GAS;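 further: secreted streptokinase activity via plasminogen activation per viability signal from cell pellet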
T8 sequence (P10520 whole entry): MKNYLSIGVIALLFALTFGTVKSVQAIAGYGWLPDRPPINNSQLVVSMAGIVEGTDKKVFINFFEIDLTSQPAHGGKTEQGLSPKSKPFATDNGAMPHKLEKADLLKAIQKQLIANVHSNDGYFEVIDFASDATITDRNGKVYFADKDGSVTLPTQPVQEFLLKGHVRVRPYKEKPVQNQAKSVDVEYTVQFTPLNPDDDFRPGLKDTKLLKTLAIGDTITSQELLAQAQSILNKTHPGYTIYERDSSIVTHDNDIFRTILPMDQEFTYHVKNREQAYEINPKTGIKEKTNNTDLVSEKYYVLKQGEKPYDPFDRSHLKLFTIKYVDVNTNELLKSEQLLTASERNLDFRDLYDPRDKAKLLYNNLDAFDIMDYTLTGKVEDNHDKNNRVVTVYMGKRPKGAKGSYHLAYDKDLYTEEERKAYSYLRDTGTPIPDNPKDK

[27] = target: NS3 (Hepatitis C virus, UniProt A3EZJ3); experiment: PubChem AID 2173; set-up: species or system Hepacivirus hominis
NS3, sequence (A3EZJ3 whole entry): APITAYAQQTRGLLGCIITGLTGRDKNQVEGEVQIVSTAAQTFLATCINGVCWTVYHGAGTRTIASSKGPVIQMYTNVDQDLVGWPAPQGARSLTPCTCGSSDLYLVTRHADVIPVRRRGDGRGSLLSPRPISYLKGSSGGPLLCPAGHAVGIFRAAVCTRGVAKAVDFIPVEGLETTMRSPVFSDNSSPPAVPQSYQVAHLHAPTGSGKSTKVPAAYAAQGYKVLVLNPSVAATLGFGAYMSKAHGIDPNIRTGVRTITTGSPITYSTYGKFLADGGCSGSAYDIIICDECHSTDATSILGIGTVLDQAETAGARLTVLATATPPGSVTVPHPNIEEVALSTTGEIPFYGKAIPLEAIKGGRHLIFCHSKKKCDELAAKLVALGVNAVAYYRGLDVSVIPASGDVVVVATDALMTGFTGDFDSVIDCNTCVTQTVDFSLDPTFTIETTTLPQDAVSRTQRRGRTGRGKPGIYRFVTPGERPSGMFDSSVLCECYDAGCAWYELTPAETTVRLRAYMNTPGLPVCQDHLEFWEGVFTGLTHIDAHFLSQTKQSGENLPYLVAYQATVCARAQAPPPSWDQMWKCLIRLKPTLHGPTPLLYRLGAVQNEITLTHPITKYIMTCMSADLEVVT

[28] = system: Streptococcus; experiment: GAS UMAA2166 growth inhibition – luminescence, BacTiterGlo, counter-screen for streptokinase expression inhibitor project, dose response (AID 1915); format: functional, organism-based;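 further: potency for reduction of bacterial viability or growth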
[29] = target: NADPH oxidase 1 (Homo sapiens, UniProt Q9Y5S8); format: functional, cell-based;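 further: Cell-based assay with luminescence read-out, IC50 derived from inhibitor dose-response curves; intracellular ROS from endogenous NOX1 in intact HT29 colon cancer cells; potency of inhibitors that lower the ROS luminescence signal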
NADPH oxidase 1, sequence (Q9Y5S8 whole entry): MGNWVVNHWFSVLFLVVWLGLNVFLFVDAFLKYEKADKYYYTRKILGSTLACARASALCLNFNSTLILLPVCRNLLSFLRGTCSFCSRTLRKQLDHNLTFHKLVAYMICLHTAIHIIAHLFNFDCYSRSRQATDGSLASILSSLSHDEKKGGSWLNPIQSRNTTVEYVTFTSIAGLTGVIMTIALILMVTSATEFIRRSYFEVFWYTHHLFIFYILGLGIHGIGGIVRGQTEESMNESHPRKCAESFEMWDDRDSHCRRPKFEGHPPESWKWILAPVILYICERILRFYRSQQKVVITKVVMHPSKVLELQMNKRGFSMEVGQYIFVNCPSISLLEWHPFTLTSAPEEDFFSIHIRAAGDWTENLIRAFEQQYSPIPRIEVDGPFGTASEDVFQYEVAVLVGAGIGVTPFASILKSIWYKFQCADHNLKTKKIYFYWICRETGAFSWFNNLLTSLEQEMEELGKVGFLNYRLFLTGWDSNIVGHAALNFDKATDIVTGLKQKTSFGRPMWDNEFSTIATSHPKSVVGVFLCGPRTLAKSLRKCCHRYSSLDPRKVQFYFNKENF
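Wherever AC50 is given: cells exposed to compound for roughly 70 hours or longer before luminescence read.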

COc1ccc(NC(=O)C2CC(=O)n3cnnc3S2)cc1 (stereo not given)
IC50 [1]: > 50 µM (not active)

O=C(Nc1ccc([N+](=O)[O-])cc1)c1cc2ccccc2nc1Cl
CC50 [2]: > 40 µM (active)

Cn1c(/C(C#N)=C(\O)COc2ccc3ccccc3c2)nc2ccccc21
EC50 [3]: > 79.4 µM (not active) | EC50 [4]: > 79.4 µM (not active) | EC50 [5]: > 79.4 µM (not active) | AC50 [6]: < 0.16 µM (active) | EC50 [7]: > 99 µM (inactive) | EC50 [8]: > 99 µM (inactive)

Cc1cc(C(=O)CSc2nc3ccccc3[nH]2)c(C)n1CC1CCCO1 (stereo not given)
EC50 [9]: 7.29 µM (inconclusive) | IC50 [10]: 1.2 µM (active) | IC50 [11]: > 35 µM (not active) | EC50 [12]: > 100 µM (not active) | EC50 [13]: 8.51 µM (active) | IC50 [14]: 0.874 µM (active) | IC50 [15]: > 42 µM (not active) | EC50 [16]: 4.95 µM (active) | IC50 [17]: > 35 µM (not active) | EC50 [18]: > 50 µM (not active) | IC50 [19]: 11.7 µM (inactive)

Oc1ccc(Nc2nc(-c3ccccn3)cs2)cc1
EC50 [20]: 3.69 µM (active)

Cc1ccc(-c2csc(NC(=O)c3ccno3)n2)cc1
IC50 [21]: 7.19 µM (active) | IC50 [22]: 3.87 µM (active) | IC50 [23]: < 0.023 µM (not active) | IC50 [24]: > 100 µM (inactive)

CCCCCCCCCc1nc2sc3c(c2c(=O)n1NC(=O)c1ccccc1[N+](=O)[O-])CC(C)(C)OC3
EC50 [25]: 1.73 µM (active) | EC50 [26]: 2.23 µM (active) | IC50 [27]: 11.2 µM (not active) | EC50 [28]: 63.4 µM (active) | AC50 [6]: 0.843 µM (active)

O=C(Nc1ccc(OCc2ccccc2)cc1)Nc1ccc(N2CCCCC2)cc1
IC50 [29]: > 17 µM (not active)
